Assay results: patent US20240382600A1, “BIFUNCTIONAL DEGRADERS COMPRISING A TEAD BINDER” (Novartis AG, priority 2021, published 2024)

Experiments:
[1] = system: SF268-MCAT_Luc_dox-i-shYAPLevy (Clone 13) cells; assay: Proliferation assay (resazurin/AlamarBlue), SF268; format: cell-based; settings: Homo sapiens, SF-268; SF268, 72 hours
MKN-45/Ubc-luc cells = assay: Proliferation assay (resazurin/AlamarBlue), MKN-45; format: cell-based; settings: Homo sapiens; MKN-45, 72 hours
How it was run: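 MKN-45 cells carrying constitutive Ubc-driven luciferase reporter, treated the day after seeding with eleven 2-fold dilutions (0.1% DMSO) for 72 h at 37 °C. Viability by resazurin, referenced to day-0 plate; GI50 from % growth (100 none, 0 stasis, −100 kill) and residual viability at top concentration.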

[2] = system: NCI-H2052 Tet-On shYAP_2371 pLenti6 MCAT_Luc cells; assay: Proliferation assay (resazurin/AlamarBlue), NCI-H2052; format: cell-based; settings: Homo sapiens; NCI-H2052, 72 hours
[3] = system: MKN-45/Ubc-luc cells (unspecific inhibition of luciferase expression or activity); assay: Reporter gene assay specificity control (Ubc-Luc), MKN-45; format: cell-based; settings: Homo sapiens; MKN-45/Ubc-luc specificity control, 24 hrs
How it was run: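 MKN-45 cells stably carrying a ubiquitin C promoter–firefly luciferase construct, treated the day after seeding with eleven 2-fold compound dilutions (0.1% DMSO final) for 24 hrs at 37° C. Luminescence read 5 min after Steady Glo addition; cell-free background subtracted, as a control for nonspecific luciferase inhibition.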

[4] = target: TEAD1-GFP in HEK293A cells (Homo sapiens (Human), UniProt P28347); assay: TEAD1 protein abundance flow cytometry assay in HEK293A; format: cell-based; settings: HEK293A TEAD1-GFP-CHYSEL-mCherry sensor cells, 24 h, GFP signal by flow cytometry
TEAD1-GFP in HEK293A cells, sequence (P28347 whole entry): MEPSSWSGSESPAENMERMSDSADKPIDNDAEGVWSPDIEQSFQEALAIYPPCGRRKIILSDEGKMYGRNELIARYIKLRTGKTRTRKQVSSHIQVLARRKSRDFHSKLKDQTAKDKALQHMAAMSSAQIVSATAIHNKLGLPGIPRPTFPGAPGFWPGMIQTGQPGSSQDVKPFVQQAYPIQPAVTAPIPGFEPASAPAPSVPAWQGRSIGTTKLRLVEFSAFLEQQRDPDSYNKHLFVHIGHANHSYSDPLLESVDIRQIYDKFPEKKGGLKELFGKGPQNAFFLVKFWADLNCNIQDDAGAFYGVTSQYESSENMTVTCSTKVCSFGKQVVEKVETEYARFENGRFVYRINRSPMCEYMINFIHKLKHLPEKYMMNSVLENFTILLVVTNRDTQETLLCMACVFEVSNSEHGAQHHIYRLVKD
Description: Degradation of TEAD1 was measured in HEK293A cells (Invitrogen R70507) expressing TEAD1-GFP and mCherry from a stably integrated bicistronic TEAD1-GFP-CHYSEL-mCherry construct. Reduction of the GFP signal measured by flow cytometry served as readout for TEAD1 degradation after degrader treatment.
Stable HEK293A sensor cells were maintained in complete growth medium (DMEM high Glucose+10% FCS+1% L-Glutamine+1% NEAA+1% NaPyr.+4 μg/mL blasticidin) with passaging performed twice per week. On Day 0, stable HEK293A sensor cells were seeded at 5,000 cells/well in a 96-well microtiter plate in 100 μL complete medium. On Day 1, cells were treated in duplicate with 10-point 1:3 dilution series of compound using the HP D300 Digital Dispenser (Tecan). DMSO concentrations were normalized across the plate to 0.1%. On Day 2, after 24 h of incubation at 37° C., treatment media was discarded, cells rinsed with 100 μL/well PBS and then detached using 40 μL trypsin/well for 5 min. Trypsin was neutralized with 100 μL/well PBS+20% FCS).
Flow cytometry was performed on the samples using the CytoFlex S (Beckman Coulter). Cell identification was then performed using forward (FSC) vs. side scatter (SSC) plots. Single cell discrimination was performed using SSC-Width (SSC-W) vs. SSC-Height (SSCH) plots. Median GFP values for 2,500 single cells were used to determine TEAD1 levels. Median GFP values from HEK293A were used as a background signal and thus defining 0% TEAD1 signal. Median GFP values from DMSO treated HEK293A TEAD1-GFP CHYSEL-mCherry were used to define 100%
TEAD1 signal for subsequent DC50 curves (concentration at 50% TAED1 degradation). GFP and RFP were read in the channels called FITC and PE, respectively. Concentration response curves plotting relative reduction of the GFP signal (measured by flow cytometry) versus 10 compound concentrations (starting concentration 10 μM, 3 fold dilution steps) of the compounds allowed generation of DC50 values.

[5] = target: Avi-humanTEAD4^217-434 / Cy5 labeled humanYAP^60-100 (Homo sapiens (Human), UniProt Q15561); assay: In-vitro biochemical TR-FRET assay (TEAD4/YAP); format: binding; settings: 1 h at room temperature
Avi-humanTEAD4^217-434 / Cy5 labeled humanYAP^60-100, sequence (Q15561 217-434): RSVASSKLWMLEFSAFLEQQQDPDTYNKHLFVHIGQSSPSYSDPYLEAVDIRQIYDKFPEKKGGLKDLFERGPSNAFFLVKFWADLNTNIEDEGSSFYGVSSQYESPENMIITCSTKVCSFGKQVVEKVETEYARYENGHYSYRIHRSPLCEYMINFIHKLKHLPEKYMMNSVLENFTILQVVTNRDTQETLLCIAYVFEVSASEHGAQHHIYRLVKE

[6] = system: YAP-dependent transcription in NCI-H2052 Tet-On shYAP_2371 pLenti6 MCAT_Luc cells; assay: YAP reporter gene activity assay (MCAT-Luc), NCI-H2052; format: cell-based; settings: Homo sapiens, 24 hrs
[7] = system: YAP-dependent transcription in SF268-MCAT_Luc_dox-i-shYAPLevy (Clone 13) cells; assay: YAP reporter gene activity assay (MCAT-Luc), SF268; format: cell-based; settings: Homo sapiens, SF-268; SF268 MCAT_Luc, 24 hrs

SMILES	GI50 (MKN-45/Ubc-luc cells) [nM]	GI50 [2] [nM]	IC50 [3] [nM]	DC50 [4] [nM]	IC50 [5] [nM]	IC50 [6] [nM]	IC50 [7] [nM]	GI50 [1] [nM]
COc1ccc(C(=O)N2CCN(CC3CCN(C(=O)[C@H]4CC[C@H](NC[C@]5(c6ccccc6)Oc6cc(F)c(Cl)c(-c7c(C(N)=O)ccc(OC)c7F)c6[C@@H]5C)CC4)CC3)CC2)cc1N1CCC(=O)NC1=O (atropisomer, axis not shown) [Example 6, 2-((2S,3S,4S)-5-chloro-2-((((1r,4S)-4-(4-((4-(3-(2,4-dioxotetrahydropyrimidin-1(2H)-yl)-4-methoxybenzoyl)piperazin-1-yl)methyl)piperidine-1-carbonyl)cyclohexyl)amino)methyl)-6-fluoro-3-methyl-2-phenyl-2,3-dihydrobenzofuran-4-yl)-3-fluoro-4-methoxybenzamide]	> 20000	61	> 20000	2	1.5	16	0.5	39
COc1ccc(C(=O)N2CCC(CC3CCN(CCNC(=O)[C@H]4CC[C@H](NC[C@]5(c6ccccc6)Oc6cc(F)c(Cl)c(-c7c(C(N)=O)ccc(OC)c7F)c6[C@@H]5C)CC4)CC3)CC2)cc1N1CCC(=O)NC1=O (atropisomer, axis not shown) [Example 7, 2-((2S,3S,4S)-5-chloro-2-((((1r,4S)-4-((2-(4-((1-(3-(2,4-dioxotetrahydropyrimidin-1(2H)-yl)-4-methoxybenzoyl)piperidin-4-yl)methyl)piperidin-1-yl)ethyl)carbamoyl)cyclohexyl)amino)methyl)-6-fluoro-3-methyl-2-phenyl-2,3-dihydrobenzofuran-4-yl)-3-fluoro-4-methoxybenzamide]	> 20000	77	> 20000	3	< 1	29	0.4	26
COc1ccc(C(=O)N2CCN(CC3CN(C(=O)[C@H]4CC[C@H](NC[C@]5(c6ccccc6)Oc6cc(F)c(Cl)c(-c7c(C(N)=O)ccc(OC)c7F)c6[C@@H]5C)CC4)C3)CC2)cc1N1CCC(=O)NC1=O (atropisomer, axis not shown) [Example 9, 2-((2S,3S,4S)-5-chloro-2-((((1r,4S)-4-(3-((4-(3-(2,4-dioxotetrahydropyrimidin-1(2H)-yl)-4-methoxybenzoyl)piperazin-1-yl)methyl)azetidine-1-carbonyl)cyclohexyl)amino)methyl)-6-fluoro-3-methyl-2-phenyl-2,3-dihydrobenzofuran-4-yl)-3-fluoro-4-methoxybenzamide]	> 2000	1190	> 2000	112	1.2	350	3.5	120
COc1ccc(C(=O)N2CCC(C3CCN(CCNC(=O)[C@H]4CC[C@H](NC[C@]5(c6ccccc6)Oc6cc(F)c(Cl)c(-c7c(C(N)=O)ccc(OC)c7F)c6[C@@H]5C)CC4)CC3)CC2)cc1N1CCC(=O)NC1=O (atropisomer, axis not shown) [Example 11, 2-((2S,3S,4S)-5-chloro-2-((((1r,4S)-4-((2-(1′-(3-(2,4-dioxotetrahydropyrimidin-1(2H)-yl)-4-methoxybenzoyl)-[4,4′-bipiperidin]-1-yl)ethyl)carbamoyl)cyclohexyl)amino)methyl)-6-fluoro-3-methyl-2-phenyl-2,3-dihydrobenzofuran-4-yl)-3-fluoro-4-methoxybenzamide]	> 20000	280	> 20000	11	< 1	91	1.4	51
COc1ccc(C(N)=O)c(-c2c(Cl)c(F)cc3c2[C@H](C)[C@@](CN[C@H]2CC[C@H](C(=O)N4CCC(CN5CCN(C(=O)COc6ccc(C)c(N7CCC(=O)NC7=O)c6)CC5)CC4)CC2)(c2ccccc2)O3)c1F (atropisomer, axis not shown) [Example 12, 2-((2S,3S,4S)-5-chloro-2-((((1r,4S)-4-(4-((4-(2-(3-(2,4-dioxotetrahydropyrimidin-1(2H)-yl)-4-methylphenoxy)acetyl)piperazin-1-yl)methyl)piperidine-1-carbonyl)cyclohexyl)amino)methyl)-6-fluoro-3-methyl-2-phenyl-2,3-dihydrobenzofuran-4-yl)-3-fluoro-4-methoxybenzamide]	> 2000	15	> 2000	1	1.6	4	0.38	20
COc1ccc(C(N)=O)c(-c2c(Cl)c(F)cc3c2[C@H](C)[C@@](CN[C@H]2CC[C@H](C(=O)N4CCC(OC5CCN(C(=O)c6ccc(Cl)c(N7CCC(=O)NC7=O)c6)CC5)CC4)CC2)(c2ccccc2)O3)c1F (atropisomer, axis not shown) [Example 13, 2-((2S,3S,4S)-5-chloro-2-((((1r,4S)-4-(4-((1-(4-chloro-3-(2,4-dioxotetrahydropyrimidin-1(2H)-yl)benzoyl)piperidin-4-yl)oxy)piperidine-1-carbonyl)cyclohexyl)amino)methyl)-6-fluoro-3-methyl-2-phenyl-2,3-dihydrobenzofuran-4-yl)-3-fluoro-4-methoxybenzamide]	> 2000	13	> 2000	0.5	1.8	4.5	0.49	23

The next lines start with results.

GI50 (MKN-45/Ubc-luc cells) [nM]	GI50 [2] [nM]	IC50 [3] [nM]	DC50 [4] [nM]	IC50 [5] [nM]	IC50 [6] [nM]	IC50 [7] [nM]	SMILES	GI50 [1] [nM]
12500	38	> 20000	1	2.6	10	0.43	COc1ccc(C(=O)N2CCC(C3CCN(C(=O)[C@H]4CC[C@H](NC[C@]5(c6ccccc6)Oc6cc(F)c(Cl)c(-c7c(C(N)=O)ccc(OC)c7F)c6[C@@H]5C)CC4)CC3)CC2)cc1N1CCC(=O)NC1=O (atropisomer, axis not shown) [Example 10, 2-((2S,3S,4S)-5-chloro-2-((((1r,4S)-4-(1′-(3-(2,4-dioxotetrahydropyrimidin-1(2H)-yl)-4-methoxybenzoyl)-[4,4′-bipiperidine]-1-carbonyl)cyclohexyl)amino)methyl)-6-fluoro-3-methyl-2-phenyl-2,3-dihydrobenzofuran-4-yl)-3-fluoro-4-methoxybenzamide]	30
> 2000	11	> 2000	3	1.4	3.1	0.63	COc1ccc(C(N)=O)c(-c2c(Cl)c(F)cc3c2[C@H](C)[C@@](CN[C@H]2CC[C@H](C(=O)N4CCC(OC5CCN(C(=O)COc6ccc(N7CCC(=O)NC7=O)c(C)c6)CC5)CC4)CC2)(c2ccccc2)O3)c1F (atropisomer, axis not shown) [Example 14, 2-((2S,3S,4S)-5-chloro-2-((((1r,4S)-4-(4-((1-(2-(4-(2,4-dioxotetrahydropyrimidin-1(2H)-yl)-3-methylphenoxy)acetyl)piperidin-4-yl)oxy)piperidine-1-carbonyl)cyclohexyl)amino)methyl)-6-fluoro-3-methyl-2-phenyl-2,3-dihydrobenzofuran-4-yl)-3-fluoro-4-methoxybenzamide]	35
